Measurements published in ChEMBL document CHEMBL4422644, “Synthesis and evaluation of α-aminoacyl amides as antitubercular agents effective on drug resistant tuberculosis” (Eur J Med Chem, 2019).
≈ marks a conversion by molar mass, not a printed value.

Experiments:
A549 = assay: Cytotoxicity against human A549 cells after 24 hrs by MTT assay; format: functional, cell-based; conditions: A549, 24 h
DU-145 = assay: Cytotoxicity against human DU145 cells after 24 hrs by MTT assay; format: functional, cell-based; conditions: DU-145, 24 h
HeLa = assay: Cytotoxicity against human HeLa cells after 24 hrs by MTT assay; format: functional, cell-based
HepG2 = assay: Cytotoxicity against human HepG2 cells after 24 hrs by MTT assay; format: functional, cell-based; conditions: HepG2, 24 h
MCF7 = assay: Cytotoxicity against human MCF7 cells after 24 hrs by MTT assay; format: functional, cell-based; conditions: MCF7, 24 h
[1] = Cytotoxicity against […] B16 cells after 24 hrs by MTT assay; format: functional, cell-based; conditions: B16, 24 h
[2] = Cytotoxicity against HEK cells after 24 hrs by MTT assay; format: cell-based; conditions: Homo sapiens, HEK293, 24 h
[3] = test system: Mycobacterium tuberculosis; assay: Antitubercular activity against Mycobacterium tuberculosis H37Rv after 7 days by alamar blue assay; format: functional; conditions: 168 h
CHO-K1 = assay: Cytotoxicity against CHOK1 cells after 24 hrs by MTT assay; format: cell-based; conditions: Cricetulus griseus, CHO-K1, 24 h
[4] = Selectivity index, ratio of IC50 for CHOK1 cells to MIC for Mycobacterium tuberculosis H37Rv; format: toxicity; conditions: hamster, read-out: Selectivity Index
Escherichia coli = assay: Antibacterial activity against Escherichia coli ATCC 25922 after 24 hrs; format: functional; conditions: ATCC 25922, 24 h
Staphylococcus aureus = assay: Antibacterial activity against Staphylococcus aureus ATCC 29213 after 24 hrs; format: functional; conditions: ATCC 29213, 24 h
Pseudomonas aeruginosa = assay: Antibacterial activity against Pseudomonas aeruginosa ATCC 27853 after 24 hrs; format: functional; conditions: ATCC 27853, 24 h
Klebsiella pneumoniae = assay: Antibacterial activity against Klebsiella pneumoniae ATCC BAA-1705 after 24 hrs; format: functional; conditions: ATCC BAA-1705, 24 h
Acinetobacter baumannii = assay: Antibacterial activity against Acinetobacter baumannii ATCC BAA-1605 after 24 hrs; format: functional; conditions: ATCC BAA-1605, 24 h
[5] = test system: Mycolicibacterium fortuitum; assay: Antibacterial activity against Mycobacterium fortuitum after 7 days by alamar blue assay; format: functional; conditions: 168 h
Mycobacteroides chelonae = assay: Antibacterial activity against Mycobacterium chelonae after 7 days by alamar blue assay; format: functional; conditions: 168 h
[6] = test system: Mycobacteroides abscessus; assay: Antibacterial activity against Mycobacterium abscessus after 7 days by alamar blue assay; format: functional; conditions: 168 h

Row | SMILES | IC50 (A549) [µM] | IC50 (DU-145) [µM] | IC50 (HeLa) [µM] | IC50 (HepG2) [µM] | IC50 (MCF7) [µM] | IC50 [1] [µM] | IC50 [2] [µM] | MIC [3] [µM] | IC50 (CHO-K1) [µM] | selectivity ratio [4] | MIC (Escherichia coli) [µM] | MIC (Staphylococcus aureus) [µM] | MIC (Pseudomonas aeruginosa) [µM] | MIC (Klebsiella pneumoniae) [µM] | MIC (Acinetobacter baumannii) [µM] | MIC [5] [µM] | MIC (Mycobacteroides chelonae) [µM] | MIC [6] [µM]
1 | COc1cccc2c1C(=O)c1c(O)c3c(c(O)c1C2=O)C[C@@](O)(C(=O)CO)C[C@@H]3O[C@H]1C[C@H](N)[C@H](O)[C@H](C)O1 [DOXORUBICIN] | 0.55 | 0.363 | 0.8 | 0.72 | 2 | 0.7 | 0.01 |  |  |  |  |  |  |  |  |  |  | 
2 | Cc1ccc(N(C(=O)c2sc(C)nc2C)C(C(=O)NC2CCCCC2)c2ccccc2)c(C)c1 (configuration not stated) | 8.63 | 11.4 | 9.43 | 12.6 | 11.7 | 29.8 | 47 | 12.5 (≈ 5.95 µg/mL) | 43 | 3.4 | > 50 | > 50 | > 50 | > 50 | > 50 | > 50 | > 50 | > 50
3 | Cc1ccc(N(C(=O)c2sc(C)nc2C)C(C(=O)NC2CCCCC2)c2ccc[nH]2)cc1 (configuration not stated) | 11.7 | 12.7 | 11.6 | 6.13 | 4.25 | 14.5 | 15.4 | 6.25 (≈ 2.82 µg/mL) | 33.4 | 5.3 | > 50 | > 50 | > 50 | > 50 | > 50 | > 50 | > 50 | > 50
4 | Cc1cccc(N(C(=O)c2c(C)noc2C)C(C(=O)NC2CCCCC2)c2cccnc2)c1C (configuration not stated) | 12.8 | 12 | 14.1 | 11.8 | 6.62 | 32.7 | 76.9 | 6.25 (≈ 2.88 µg/mL) | 137 | 21.7 | > 50 | > 50 | > 50 | > 50 | > 50 | > 50 | > 50 | > 50
5 | Cc1ccc(N(C(=O)c2sc(C)nc2C)C(C(=O)NC2CCCCC2)c2ccc(Cl)cc2)cc1 (configuration not stated) | 10.3 | 9 | 11.9 | 5.33 | 3.19 | 23 | 11.8 | 0.78 (≈ 0.387 µg/mL) | 7.37 | 8.9 | > 50 | > 50 | > 50 | > 50 | > 50 | > 50 | > 50 | > 50
6 | Cc1ccc(N(C(=O)c2c(C)noc2C)C(C(=O)NC2CCCCC2)c2cccnc2)cc1 (configuration not stated) | 12.9 | 11 | 18.2 | 10.3 | 5.39 | 40 | 82 | 6.12 (≈ 2.73 µg/mL) | 112 | 17.9 | > 50 | > 50 | > 50 | > 50 | > 50 | > 50 | > 50 | > 50
7 | Cc1nc(C)c(C(=O)N(c2cccc(C)c2C)C(C(=O)NCc2ccccc2)c2ccccc2)s1 (configuration not stated) | 12.7 | 12.6 | 11.7 | 8.13 | 5.62 | 12.4 | 31.2 | 6.12 (≈ 2.96 µg/mL) | 30.2 | 4.9 | > 50 | > 50 | > 50 | > 50 | > 50 | > 50 | > 50 | > 50
8 | Cc1ccc(N(C(=O)c2sc(C)nc2C)C(C(=O)NC2CCCCC2)c2ccncc2)cc1 (configuration not stated) | 11.6 | 14.5 | 11 | 12 | 10.3 | 23.9 | 81.1 | 12.5 (≈ 5.78 µg/mL) | 141 | 11.3 | > 50 | > 50 | > 50 | > 50 | > 50 | > 50 | > 50 | > 50
9 | Cc1cccc(N(C(=O)c2ccncc2)C(C(=O)NC2CCCCC2)c2ccccc2)c1C (configuration not stated) | 12.9 | 11.3 | 13.8 | 6.99 | 6.41 | 12.2 | 38 | 6.25 (≈ 2.76 µg/mL) | 81.4 | 13 | > 50 | > 50 | > 50 | > 50 | > 50 | > 50 | > 50 | > 50
10 | Cc1cccc(N(C(=O)c2c(C)noc2C)C(C(=O)NC2CCCCC2)c2ccncc2)c1C (configuration not stated) |  |  |  |  |  |  |  | 25 (≈ 11.5 µg/mL) |  |  | > 50 | > 50 | > 50 | > 50 | > 50 | > 50 | > 50 | > 50
11 | Cc1ccc(N(C(=O)c2sc(C)nc2C)C(C(=O)NC2CCCCC2)c2c(F)cc(Br)cc2F)cc1 (configuration not stated) | 11.7 | 12.6 | 22.2 | 4.79 | 4.08 | 10.8 | 58.3 | 6.25 (≈ 3.6 µg/mL) | 53.3 | 8.5 | > 50 | > 50 | > 50 | > 50 | > 50 | > 50 | > 50 | > 50
12 | Cc1ccc(N(C(=O)c2sc(C)nc2C)C(C(=O)NC2CCCCC2)c2ccccc2)cc1 (configuration not stated) | 1.48 | 14 | 10.7 | 11.8 | 3.69 | 13.9 | 37 | 1.56 (≈ 0.72 µg/mL) | 17.9 | 10.9 | > 50 | > 50 | > 50 | > 50 | > 50 | > 50 | > 50 | > 50
13 | Cc1ccc(N(C(=O)c2c(C)noc2C)C(C(=O)NC2CCCCC2)c2ccncc2)cc1 (configuration not stated) | 11 | 9.53 | 15.8 | 8.48 | 4.24 | 28.6 | 71.3 | 6.12 (≈ 2.73 µg/mL) | 166 | 26.6 | > 50 | > 50 | > 50 | > 50 | > 50 | > 50 | > 50 | > 50
14 | Cc1cccc(N(C(=O)c2ccc[nH]2)C(C(=O)NC2CCCCC2)c2cccnc2)c1C (configuration not stated) | 17.5 | 12.6 | 10 | 9.58 | 5.51 | 13.7 | 54.3 | 12.5 (≈ 5.38 µg/mL) | 267 | 21.4 | > 50 | > 50 | > 50 | > 50 | > 50 | > 50 | > 50 | > 50
15 | Cc1nc(C)c(C(=O)N(c2cccc(C)c2C)C(C(=O)NC2CCCCC2)c2ccc(Cl)cc2)s1 (configuration not stated) | 9.2 | 8.53 | 13.9 | 6.15 | 4.12 | 21 | 90.5 | 3.12 (≈ 1.59 µg/mL) | 11.4 | 3.5 | > 50 | > 50 | > 50 | > 50 | > 50 | > 50 | > 50 | > 50
16 | Cc1ccc(N(C(=O)c2sc(C)nc2C)C(C(=O)NC2CCCCC2)c2cccc(C(F)(F)F)c2)cc1 (configuration not stated) | 13.9 | 11.8 | 16.4 | 8.14 | 5.7 | 11.6 | 59.8 | 6.25 (≈ 3.31 µg/mL) | 42.7 | 6.8 |  |  |  |  |  |  |  | 
17 | Cc1cccc(C)c1N(C(=O)c1ccc[nH]1)C(C(=O)NC1CCCCC1)c1ccccc1 (configuration not stated) |  |  |  |  |  |  |  | 25 (≈ 10.7 µg/mL) |  |  | > 50 | > 50 | > 50 | > 50 | > 50 | > 50 | > 50 | > 50
18 | Cc1ccc(N(C(=O)c2ccncc2)C(C(=O)NC2CCCCC2)c2cccnc2)cc1 (configuration not stated) |  |  |  |  |  |  |  | 25 (≈ 10.7 µg/mL) |  |  | > 50 | > 50 | > 50 | > 50 | > 50 | > 50 | > 50 | > 50
19 | Cc1nc(C)c(C(=O)N(c2ccccc2O)C(C(=O)NC2CCCCC2)c2ccccc2)s1 (configuration not stated) |  |  |  |  |  |  |  | 25 (≈ 11.6 µg/mL) |  |  | > 50 | > 50 | > 50 | > 50 | > 50 | > 50 | > 50 | > 50
